Patent US20230348424A1, “HETEROCYCLIC COMPOUNDS AND METHODS OF USE” (Schrödinger, Inc., priority 2022, published 2023)
pIC50: −log10 of the molar value.

Target: SOS1:KRAS (G12C) interaction (Homo sapiens (Human), UniProt Q07889)
Experiment: SOS1 KRas(G12C) FRET Assay
Type: binding
Details: 0.5 nM His10-SOS1 (res. 564-1049), 2.5 nM GST-KRAS G12C (res. 1-169), 2 hrs at RT
How it was run: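 GST-KRAS G12C (res. 1-169) at 2.5 nM and His10-SOS1 (res. 564-1049) at 0.5 nM, final, in PBS with 0.1% BSA, 5 mM MgCl2, 100 mM KF, 5 mM DTT and 0.5% DMSO. After 2 h at RT, FRET read at 665/615 nm and normalized to DMSO and no-SOS1 controls. IC50 by non-linear regression.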

SOS1:KRAS (G12C) interaction, sequence (Q07889 564-1049, stated change not applied): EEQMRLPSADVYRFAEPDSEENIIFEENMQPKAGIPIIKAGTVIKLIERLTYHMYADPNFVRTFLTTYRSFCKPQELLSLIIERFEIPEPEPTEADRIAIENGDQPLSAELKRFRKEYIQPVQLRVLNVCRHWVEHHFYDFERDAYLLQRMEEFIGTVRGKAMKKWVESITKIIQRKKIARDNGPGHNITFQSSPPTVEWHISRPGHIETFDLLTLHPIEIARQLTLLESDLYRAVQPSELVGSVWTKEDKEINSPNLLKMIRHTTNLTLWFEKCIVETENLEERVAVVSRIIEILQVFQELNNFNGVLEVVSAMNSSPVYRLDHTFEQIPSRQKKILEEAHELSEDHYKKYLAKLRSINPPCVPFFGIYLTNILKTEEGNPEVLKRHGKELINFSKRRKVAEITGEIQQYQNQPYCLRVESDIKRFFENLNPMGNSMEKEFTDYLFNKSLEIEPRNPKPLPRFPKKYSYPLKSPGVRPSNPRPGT

| SMILES | pIC50 |
| --- | --- |
| C[C@@H](NC(=O)c1cn(C2(C(F)(F)F)CCC2)c(=O)cc1NC1CCN(C)CC1)c1cccc(C(F)F)c1F [Example 225, (R)-N-(1-(3-(difluoromethyl)-2-fluorophenyl)ethyl)-4-((1-methylpiperidin-4-yl)amino)-6-oxo-1-(1-(trifluoromethyl)cyclobutyl)-1,6-dihydropyridine-3-carboxamide] | 7.86 |
| C[C@@H](NC(=O)c1cn(C2(C(F)F)CC2)c(=O)cc1NC[C@@H]1[C@H]2CN(C)C[C@@H]12)c1cccc(C(F)F)c1F [Example 226, N-((R)-1-(3-(difluoromethyl)-2-fluorophenyl)ethyl)-1-(1-(difluoromethyl)cyclopropyl)-4-((((1R,5S,6s)-3-methyl-3-azabicyclo[3.1.0]hexan-6-yl)methyl)amino)-6-oxo-1,6-dihydropyridine-3-carboxamide] | 7.45 |
| C[C@@H](NC(=O)c1cn(C2(C(F)F)CC2)c(=O)cc1N[C@]12C[C@H]1CN(C)C2)c1cccc(C(F)F)c1F [Example 227, N-((R)-1-(3-(difluoromethyl)-2-fluorophenyl)ethyl)-1-(1-(difluoromethyl)cyclopropyl)-4-(((1R,5S)-3-methyl-3-azabicyclo[3.1.0]hexan-1-yl)amino)-6-oxo-1,6-dihydropyridine-3-carboxamide] | 7.21 |
| C[C@@H](NC(=O)c1cn(C2(C(F)F)CC2)c(=O)cc1N[C@@]12C[C@@H]1CN(C)C2)c1cccc(C(F)F)c1F [Example 228, N-((R)-1-(3-(difluoromethyl)-2-fluorophenyl)ethyl)-1-(1-(difluoromethyl)cyclopropyl)-4-(((1S,5R)-3-methyl-3-azabicyclo[3.1.0]hexan-1-yl)amino)-6-oxo-1,6-dihydropyridine-3-carboxamide] | 7.19 |
| C[C@@H](NC(=O)c1cn(C2(C(F)F)CC2)c(=O)cc1N[C@H]1C[C@@H](N(C)C)C1)c1cccc(C(F)F)c1F [Example 229, N-((R)-1-(3-(difluoromethyl)-2-fluorophenyl)ethyl)-1-(1-(difluoromethyl)cyclopropyl)-4-(((1s,3S)-3-(dimethylamino)cyclobutyl)amino)-6-oxo-1,6-dihydropyridine-3-carboxamide] | 7.64 |
| C[C@@H](NC(=O)c1cn(C2(C(C)(F)F)CC2)c(=O)cc1NC1CCN(C)CC1)c1cccc(C(F)F)c1F [Example 230, (R)-1-(1-(1,1-difluoroethyl)cyclopropyl)-N-(1-(3-(difluoromethyl)-2-fluorophenyl)ethyl)-4-((1-methylpiperidin-4-yl)amino)-6-oxo-1,6-dihydropyridine-3-carboxamide] | 7.66 |
| C[C@@H](NC(=O)c1cn(C2CC3(C2)CC(F)(F)C3)c(=O)cc1N[C@H]1[C@@H]2CN(C)C[C@@H]21)c1cccc(C(F)F)c1F [Example 231, N-((R)-1-(3-(difluoromethyl)-2-fluorophenyl)ethyl)-1-(6,6-difluorospiro[3.3]heptan-2-yl)-4-(((1R,5S,6s)-3-methyl-3-azabicyclo[3.1.0]hexan-6-yl)amino)-6-oxo-1,6-dihydropyridine-3-carboxamide] | 7.99 |
| C[C@@H](NC(=O)c1cn([C@@]2(C(F)(F)F)CCOC2)c(=O)cc1NC1CCN(C)CC1)c1cccc(C(F)F)c1F [Example 232, N-((R)-1-(3-(difluoromethyl)-2-fluorophenyl)ethyl)-4-((1-methylpiperidin-4-yl)amino)-6-oxo-1-((S)-3-(trifluoromethyl)tetrahydrofuran-3-yl)-1,6-dihydropyridine-3-carboxamide] | 7.04 |
| C[C@@H](NC(=O)c1cn([C@]2(C(F)(F)F)CCOC2)c(=O)cc1NC1CCN(C)CC1)c1cccc(C(F)F)c1F [Example 233, N-((R)-1-(3-(difluoromethyl)-2-fluorophenyl)ethyl)-4-((1-methylpiperidin-4-yl)amino)-6-oxo-1-((R)-3-(trifluoromethyl)tetrahydrofuran-3-yl)-1,6-dihydropyridine-3-carboxamide] | 8.32 |
| C[C@@H](NC(=O)c1cn(C2(C(F)F)CC2)c(=O)cc1NC1CCN(C)C2(CC2)C1)c1cccc(C(F)F)c1F (stereo partly drawn) [Example 240, N-((R)-1-(3-(difluoromethyl)-2-fluorophenyl)ethyl)-1-(1-(difluoromethyl)cyclopropyl)-4-((4-methyl-4-azaspiro[2.5]octan-7-yl)amino)-6-oxo-1,6-dihydropyridine-3-carboxamide] | 7.87 |
| C[C@@H](NC(=O)c1cn(C23COC(C(F)F)(C2)C3)c(=O)cc1NC1[C@H]2CN(C)C[C@@H]12)c1cccc(C(F)F)c1F (stereo partly drawn) [Example 263, N-((R)-1-(3-(difluoromethyl)-2-fluorophenyl)ethyl)-1-(1-(difluoromethyl)-2-oxabicyclo[2.1.1]hexan-4-yl)-4-(((1R,5S,6s)-3-methyl-3-azabicyclo[3.1.0]hexan-6-yl)amino)-6-oxo-1,6-dihydropyridine-3-carboxamide] | 7.83 |

Results, then the compound that gave them:

| pIC50 | SMILES |
| --- | --- |
| 7.54 | C[C@@H](NC(=O)c1cn(C2(C3CCC3)CC2)c(=O)cc1NC1CCN(C)CC1)c1cccc(C(F)F)c1F [Example 241, (R)-1-(1-cyclobutylcyclopropyl)-N-(1-(3-(difluoromethyl)-2-fluorophenyl)ethyl)-4-((1-methylpiperidin-4-yl)amino)-6-oxo-1,6-dihydropyridine-3-carboxamide] |
| 7.94 | C[C@@H](NC(=O)c1cn(C2CC23CCC(F)(F)CC3)c(=O)cc1N[C@H]1[C@@H]2CN(C)C[C@@H]21)c1cccc(C(F)F)c1F (stereo partly drawn) [Example 242, N-((R)-1-(3-(difluoromethyl)-2-fluorophenyl)ethyl)-1-(6,6-difluorospiro[2.5]octan-1-yl)-4-(((1R,5S,6s)-3-methyl-3-azabicyclo[3.1.0]hexan-6-yl)amino)-6-oxo-1,6-dihydropyridine-3-carboxamide] |
| 8.20 | C[C@@H](NC(=O)c1cn([C@@H]2CCOC[C@H]2F)c(=O)cc1N[C@H]1[C@@H]2C[C@H]1CN(C)C2)c1cccc(C(F)F)c1F [Example 243, N-((R)-1-(3-(difluoromethyl)-2-fluorophenyl)ethyl)-1-((3S,4R)-3-fluorotetrahydro-2H-pyran-4-yl)-4-(((1R,5Sx,6r)-3-methyl-3-azabicyclo[3.1.1]heptan-6-yl)amino)-6-oxo-1,6-dihydropyridine-3-carboxamide] |
| 7.74 | C[C@@H](NC(=O)c1cn([C@@H]2CCOC[C@H]2F)c(=O)cc1N[C@@H]1[C@@H]2C[C@H]1CN(C)C2)c1cccc(C(F)F)c1F [Example 244, N-((R)-1-(3-(difluoromethyl)-2-fluorophenyl)ethyl)-1-((3S,4R)-3-fluorotetrahydro-2H-pyran-4-yl)-4-(((1R5S,6s)-3-methyl-3-azabicyclo[3.1.1]heptan-6-yl)amino)-6-oxo-1,6-dihydropyridine-3-carboxamide] |
| 6.94 | COC12CC(CNc3cc(=O)n(C45CC(C4)C5)cc3C(=O)N[C@H](C)c3cccc(C(F)F)c3F)(C1)C2 [Example 262, (R)-1-(bicyclo[1.1.1]pentan-1-yl)-N-(1-(3-(difluoromethyl)-2-fluorophenyl)ethyl)-4-(((3-methoxybicyclo[1.1.1]pentan-1-yl)methyl)amino)-6-oxo-1,6-dihydropyridine-3-carboxamide] |
| 8.66 | CC(=O)N1CCC(C)(n2cc(C(=O)N[C@H](C)c3cccc(C(F)F)c3F)c(NC3CCN(C)CC3)cc2=O)C1 (stereo partly drawn) [Example 264, 1-(1-acetyl-3-methylpyrrolidin-3-yl)-N-((R)-1-(3-(difluoromethyl)-2-fluorophenyl)ethyl)-4-((1-methylpiperidin-4-yl)amino)-6-oxo-1,6-dihydropyridine-3-carboxamide] |
| 8.61 | C[C@@H](NC(=O)c1cn(C2(C)CCN(C(=O)C3(F)CC3)C2)c(=O)cc1NC1CCN(C)CC1)c1cccc(C(F)F)c1F (stereo partly drawn) [Example 267, N-((R)-1-(3-(difluoromethyl)-2-fluorophenyl)ethyl)-1-(1-(1-fluorocyclopropane-1-carbonyl)-3-methylpyrrolidin-3-yl)-4-((1-methylpiperidin-4-yl)amino)-6-oxo-1,6-dihydropyridine-3-carboxamide] |
| 7.48 | C[C@@H](NC(=O)c1cn([C@@]2(C)CCN(C(=O)C3(F)CC3)C2)c(=O)cc1NC1CCN(C)CC1)c1cccc(C(F)F)c1F [Example 268, N-((R)-1-(3-(difluoromethyl)-2-fluorophenyl)ethyl)-1x-((S)-1-(1-fluorocyclopropane-1-carbonyl)-3-methylpyrrolidin-3-yl)-4-((1-methylpiperidin-4-yl)amino)-6-oxo-1,6-dihydropyridine-3-carboxamide] |
| 8.92 | C[C@@H](NC(=O)c1cn([C@]2(C)CCN(C(=O)C3(F)CC3)C2)c(=O)cc1NC1CCN(C)CC1)c1cccc(C(F)F)c1F [Example 269, N-((R)-1-(3-(difluoromethyl)-2-fluorophenyl)ethyl)-1-((R)-1-(1-fluorocyclopropane-1-carbonyl)-3-methylpyrrolidin-3-yl)-4-((1-methylpiperidin-4-yl)amino)-6-oxo-1,6-dihydropyridine-3-carboxamide] |
| 8.76 | C[C@@H](NC(=O)c1cn(C2(C)CN(C(=O)C3CC3)C2)c(=O)cc1N[C@H]1[C@@H]2CN(C)C[C@@H]21)c1cccc(C(F)F)c1F [Example 270, 1-(1-(cyclopropanecarbonyl)-3-methylazetidin-3-yl)-N-((R)-1-(3-(difluoromethyl)-2-fluorophenyl)ethyl)-4-(((1R,5S,6s)-3-methyl-3-azabicyclo[3.1.0]hexan-6-yl)amino)-6-oxo-1,6-dihydropyridine-3-carboxamide] |
| 7.43 | C[C@@H](NC(=O)c1cn(C2(C(F)F)CC2)c(=O)cc1N[C@H]1[C@@H]2CNC[C@@H]21)c1cccc(C(F)F)c1F [Example 279, 4-(((1R,5S,6s)-3-azabicyclo[3.1.0]hexan-6-yl)amino)-N-((R)-1-(3-(difluoromethyl)-2-fluorophenyl)ethyl)-1-(1-(difluoromethyl)cyclopropyl)-6-oxo-1,6-dihydropyridine-3-carboxamide] |
